The results in this text go back to a melting point compilation (Tetko et al.).

SMILES strings stand for the structures. Some results are limits rather than exact numbers.

As a reminder, the melting point is the temperature of the solid-liquid transition. The compound `CN(C)c1nc2cc(C#N)ccc2o1` displayed a melting point of 203 to 205 °C.
Under `O=C(O)CCc1ccc2ccccc2n1` stands 107 to 109 °C; under `O=C1CCCc2nc(-c3ccccc3Br)sc21`, 130 to 132 °C; under `O=C(O)c1cc2cc(Br)sc2[nH]1`, 164 to 166 °C.
Under `C=CCOc1ccc(C(=O)O)cc1OC` stands 173 to 175 °C.
Under `OCCN1CCN(c2ccc(CO)nn2)CC1` stands 129 to 131 °C; under `CS(=O)(=O)c1ccc2c(c1)NCCO2`, 117 to 119 °C; under `O=C(O)c1cccnc1OCC(F)F`, 79 to 81 °C.
`COCCOc1ccc(Cl)cc1C(=O)O` yielded a melting point of 68 to 70 °C.
`COc1cc2c(cc1C=O)OC(C)C2` (centres undefined) registered a melting point of 78 to 80 °C.
Under `C=CC(=O)Nc1ccc(N(C)C(C)C)c(F)c1` stands 81 to 83 °C.
Under `Cc1ccc(Cn2ncc3c(C(=O)O)cc(C)nc32)cc1` stands 190 to 192 °C.
Under `COc1ccc2c(c1)OCC(C=O)=C2` stands 82 to 84 °C; under `Cc1nc(-c2ccc(N)cc2)co1`, 112 to 114 °C; under `CN(CC(=O)O)S(C)(=O)=O`, 54 to 56 °C.
`Cc1ccc2c(c1)OC(C)C(=O)N2` (centres undefined) had a melting point of 154 to 156 °C.
`Clc1ccc(N2CCOCC2)nn1` returned a melting point of 131 to 133 °C.
Under `CCC(c1ccccc1)c1nnc(N)o1` (centres undefined) stands 197 to 199 °C; under `NC1=NNC(=O)C1c1ccccc1` (centres undefined), 249 to 251 °C.
The value for `NNc1cc(C(F)(F)F)nc(-c2ccncc2)n1` was 233 to 235 °C; that for `Cc1ccc(S(=O)(=O)Nc2cccc(Cl)c2)cc1N` was 110 to 112 °C.
Under `O=C(O)CCC(=O)NCC(=O)c1ccccc1` stands 143 to 145 °C; under `O=C(Cc1ccc(Br)cc1)Nc1ccccc1C(=O)O`, 212 to 214 °C.
`N#CCc1nc(-c2ccc(C#N)cc2)cs1` came in with a melting point of 177 to 179 °C.
On to `CCC(Nc1nc(C)cs1)C(=O)O` (centres undefined), for which the melting point lay within 173 to 175 °C.
The value for `O=C(O)/C(=C\c1cccc(Cl)c1)c1cccs1` was 192 to 194 °C; that for `O=C1OC(CCl)CN1c1ccccc1` (centres undefined) was 103 to 105 °C; that for `CCn1cc(C(=O)O)c(C(C)C)n1` was 122 to 124 °C.
`Nc1ccc(Sc2nncs2)c(Cl)c1` gave a melting point of 112 to 114 °C.
Under `O=S(=O)(Cl)c1scc(Br)c1Br` stands 111 to 113 °C; under `CC1(c2ccc3ccccc3c2)NC(=O)NC1=O` (centres undefined), 190 to 192 °C.
The value for `Cc1cccc(NS(=O)(=O)c2ccc(C)c(N)c2)c1` was 95 to 97 °C; that for `ClCc1cnc(Cl)s1` was 31 to 33 °C.
In turn, `CC(=O)N1CCC(C(=O)O)(c2ccccc2)CC1` showed a melting point of 207 to 209 °C.
The value for `Oc1cccc(-c2cn[nH]c2)c1` was 218 to 220 °C.
As to `O=C(O)Cn1cc([N+](=O)[O-])cn1`, the melting point is 153 to 155 °C.
Under `FC(F)(F)c1cccc(-c2ccc(Cl)nn2)c1` stands 133 to 135 °C; under `COc1cccc(Nc2nnc(SCC(=O)O)s2)c1`, 135 to 137 °C.
Under `O=C(COc1ccc(F)cc1)N1CCNCC1` stands 89 to 91 °C.
In turn, `Cc1ccn2c(N)c(-c3ccc(F)cc3)nc2c1` showed a melting point of 188 to 190 °C.
On to `Cc1ccccc1OCc1csc(N)n1`, for which the melting point lay within 95 to 97 °C.
With `Cc1nn(-c2ccccc2)c(Oc2ccc(F)cc2)c1C=O`, the melting point fell in the range of 105 to 107 °C.
Under `O=S(=O)(NC1CC1)c1ccc(F)cc1` stands 54 to 56 °C; under `Cc1ccc(C(=O)O)cc1S(=O)(=O)N1CCCCC1`, 179 to 181 °C.
The value for `CC(=O)Nc1ccc(N=C=S)cc1` was 199 to 201 °C; that for `Cc1cc(C(=O)CCl)c(C)n1-c1ccc(Br)cc1` was 82 to 84 °C.
The value for `O=C(O)c1cc2cc(Cl)cc(Br)c2o1` was 265 to 267 °C; that for `Cn1cnnc1-c1ccccc1` was 114 to 116 °C; that for `N#Cc1ccc(Oc2ccc(F)c(Cl)c2)c(F)c1` was 97 to 99 °C.
As for `CNC(=O)NC(=O)C(Cl)c1ccccc1` (centres undefined), the melting point lay within 130 to 132 °C.
Under `CS(=O)(=O)c1ccc(CNC(=O)CCl)cc1` stands 142 to 144 °C.
In the case of `COc1cc(/C=C/C(=O)O)cc2c1OCCO2`, the melting point is 182 to 185 °C.
Under `O=C(O)CSc1nnc(NC2CCCCC2)s1` stands 157 to 159 °C.
Under `O=C(CCl)Nc1cccnc1` stands 179 to 181 °C; under `Cc1ccc(NC(N)=O)cc1C`, 170 to 172 °C.
Under `Cc1csc(N2CCC(=O)CC2)n1` stands 59 to 61 °C.
Take `COc1ccc(N)cc1OCC(F)(F)F`: the melting point is 154 to 156 °C.
The value for `NC(=O)c1sccc1-c1ccccc1` was 114 to 116 °C; that for `CCCn1c(C)cc(/C=C(\C#N)C(=O)O)c1C` was 199 to 201 °C.
Under `O=C1Nc2cc3c(cc2C1=O)OCCO3` stands 210 to 212 °C; under `O=C(Nc1cccnc1)c1cccc(Br)c1`, 133 to 135 °C; under `O=C(O)CC1CCSCC1`, 69 to 71 °C.
Under `Cc1nc(=O)cc[nH]1` stands 213 to 215 °C.
In the case of `CC(C)(C)OC(=O)NC1CN(c2ccccc2)C1=O` (centres undefined), the melting point lay in the range of 167 to 169 °C.
The value for `CCn1cc(S(N)(=O)=O)nc1C` was 179 to 181 °C; that for `CC(C)c1cc(C(=O)O)nn1-c1ccncc1` was 225 to 227 °C; that for `Cc1cc(N)nn1-c1ccccc1Cl` was 63 to 65 °C.
In turn, `C#CCNC(=O)Nc1ccc(Cl)cc1` displayed a melting point of 211 to 213 °C.
Under `CC1(C)CNCCS1(=O)=O` stands 46 to 48 °C.
`CC(Cl)C(=O)N(C)C1CCS(=O)(=O)C1` (centres undefined) displayed a melting point of 106 to 108 °C.
For the compound `O=C(O)c1cn(-c2ccc(Br)cc2Cl)nn1`, the melting point was in the range of 144 to 146 °C.
Under `O=C1C(=O)N(Cc2ccccc2)c2ccccc21` stands 92 to 94 °C; under `CC(O)CCNc1cc2nc[nH]c(=O)c2cc1N` (centres undefined), 209 to 211 °C; under `CC[C@@H](CO)NCc1ccccc1`, 73 to 75 °C.
Regarding `O=Cc1cccc(NC(=O)C(F)(F)F)c1`, the melting point lay within 102 to 104 °C.
Under `O=C(O)c1csc(Cc2ccccc2F)n1` stands 154 to 156 °C; under `CN(C)c1ncnc(Cl)c1CCl`, 64 to 66 °C.
In turn, `O=c1[nH]c(CCl)nc2sccc12` showed a melting point of 209 to 211 °C.
The value for `Nc1ccc(CCN2CCOCC2)cc1` was 87 to 89 °C; that for `CCOC(=O)c1c(N)c(C#N)cn1C` was 159 to 161 °C.
The value for `NCc1ccc(NC(=O)c2cccnc2)cc1` was 137 to 139 °C.
On to `Cc1cc(N)nc(C)c1Br`, for which the melting point lay in the range of 147 to 149 °C.
Consider `O=C(CCl)N1CCCc2cc(S(=O)(=O)N3CCCC3)ccc21`, for which the melting point was 146 to 148 °C.
Turning to `Nc1nnc(Cc2ccc(F)cc2)[nH]1`, the melting point fell in the range of 197 to 199 °C.
The value for `Cc1cccc(Cl)c1NC(=O)CBr` was 139 to 141 °C; that for `CC(C)NC(=O)Cc1ccc(N)cc1` was 153 to 155 °C; that for `O=[N+]([O-])c1ccc(Br)c2ccncc12` was 134 to 136 °C.
With `O=C(O)CCC1Cc2ccccc2NC1=O` (centres undefined), the melting point lay within 174 to 176 °C.
`COC(=O)c1c(Cl)ccc([N+](=O)[O-])c1N` showed a melting point of 89 to 91 °C.
Under `COc1ccc(C)cc1NC(=O)CNC(=O)CCl` stands 121 to 123 °C.
Under `COc1ccc(SCCC(=O)O)cc1OC` stands 72 to 74 °C; under `COC(=O)c1ccnc(Cl)c1`, 31 to 33 °C.
The value for `CC(C)S(=O)(=O)c1ccc(F)c(C(=O)O)c1` was 139 to 141 °C; that for `Nc1ncc(Cc2ccc(Cl)cc2)s1` was 127 to 129 °C.
On to `O=C(O)c1ccn(-c2cccc(Br)c2)n1`, for which the melting point was in the range of 142 to 144 °C.
For the compound `COC(=O)c1nonc1N`, the melting point was 115 to 117 °C.
As for `CCc1c(C(=O)CCl)[nH]c(C)c1C(C)=O`, the melting point was 143 to 145 °C.
The value for `O=C1CCCCC1c1ccc(C(F)(F)F)cc1` (centres undefined) was 96 to 98 °C; that for `Fc1ccc(NC2CCOCC2)nc1` was 115 to 117 °C; that for `CCOc1ccc(C2CCCN2)cc1` (centres undefined) was less than 17 °C.
The value for `Nc1cc(F)ccc1NC(=O)c1ccccn1` was 101 to 103 °C.
The value for `O=C(O)CCc1nc(-c2ccc(Cl)cc2)no1` was 152 to 154 °C; that for `CC(C)Oc1ncccc1O` was 57 to 59 °C.
`CCCCOc1ccc(-c2nnc(N)o2)cc1` registered a melting point of 229 to 231 °C.
Under `NC(=O)C(Cl)c1ccc(F)cc1` (centres undefined) stands 93 to 95 °C.
The value for `COC(=O)CSc1cncc(Cl)n1` was 32 to 34 °C; that for `CC(C)c1ccc(C=NO)cc1` was 64 to 66 °C; that for `CC1(C)CCc2[nH]c3ccccc3c2C1` was 103 to 105 °C.
The compound `CCCN1CCCC1C(=O)O` (centres undefined) had a melting point of 83 to 85 °C.
The value for `CNC(=O)NC(=O)CCl` was 155 to 157 °C; that for `NNC(=S)NC1CCC1` was 96 to 98 °C; that for `CN(C)C(=O)CNc1ccccc1` was 114 to 116 °C.
The value for `COC(=O)c1n[nH]c(N)n1` was 218 to 222 °C; that for `Nc1cnn(-c2ccncc2)c1` was 152 to 154 °C; that for `CNCc1cn(-c2ccccc2)nc1-c1ccc(Cl)cc1` was 65 to 67 °C.
Under `Nc1cccc(CS(=O)(=O)c2ccc(F)cc2F)c1` stands 97 to 99 °C.
As to `O=S(=O)(NCC1CC1)c1ccc(Cl)nc1`, the melting point was in the range of 95 to 97 °C.
Under `COC(=O)C(O)c1cccc(Cl)c1` (centres undefined) stands 80 to 82 °C; under `Nc1nccc(-c2ccccc2)n1`, 162 to 164 °C; under `CC(Cl)c1nnc(-c2ccc(Cl)c(Cl)c2)o1` (centres undefined), 93 to 95 °C.
Under `O=C(O)c1c[nH]c2cccc(F)c12` stands 209 to 211 °C.
The value for `Cc1ccc2c(C)cc(=O)[nH]c2c1` was 209 to 211 °C.
`Cn1ncnc1COc1ccc(S(=O)(=O)Cl)cc1` came in with a melting point of 114 to 116 °C.
Turning to `O=S1(=O)CCC(I)CC1`, the melting point lay within 124 to 126 °C.
